This note sets out measurements from patent US20230031406A1, “COMPOUNDS AND COMPOSITIONS FOR TREATING CONDITIONS ASSOCIATED WITH NLRP ACTIVITY” (Novartis AG, priority 2018, published 2023).

For the experiment, the system named is PMA-differentiated THP-1 cells. Put plainly: hTHP-1 assay containing 10% fetal bovine serum (IL-1β production, Tables B5 and B6). Format: cell-based, human. As for the experimental part: The following protocol is suitable for testing the activity of the compounds disclosed herein. Procedure 1: IL-1β Production in PMA-Differentiated THP-1 Cells Stimulated with Gramicidin.
THP-1 cells were purchased from the American Type Culture Collection and sub-cultured according to instructions from the supplier. Cells were cultured in complete RPMI 1640 (containing 10% heat inactivated FBS, penicillin (100 units/ml) and streptomycin (100 μg/ml)), and maintained in log phase prior to experimental setup. Prior to the experiment, compounds were dissolved in dimethyl sulfoxide (DMSO) to generate a 30 mM stock. The compound stock was first pre-diluted in DMSO to 3, 0.34, 0.042 and 0.0083 mM intermediate concentrations and subsequently spotted using Echo550 liquid handler into an empty 384-well assay plate to achieve desired final concentration (e.g. 100, 33, 11, 3.7, 1.2, 0.41, 0.14, 0.046, 0.015, 0.0051, 0.0017 μM). DMSO was backfilled in the plate to achieve a final DMSO assay concentration of 0.37%. The plate was then sealed and stored at room temperature until required.
THP-1 cells were treated with PMA (Phorbol 12-myristate 13-acetate) (20 ng/ml) for 16-18 hours. On the day of the experiment the media was removed and adherent cells were detached with trypsin for 5 minutes. […] The cells were plated in the 384-well assay plate containing the spotted compounds at a density of 50,000 cells/well (final assay volume 50 μl). Cells were incubated with compounds for 1 hour and then stimulated with gramicidin (5 μM) (Enzo) for 2 hours. Plates were then centrifuged at 340 g for 5 min. Cell free supernatant (40 μL) was collected using a 96—CHannel PlateMaster (Gilson) and the production of IL-1β was evaluated by HTRF (cisbio). The plates were incubated for 18 h at 4° C. and read using the preset HTRF program (donor emission at 620 nm, acceptor emission at 668 nm) of the SpectraMax i3x spectrophotometer (Molecular Devices, software SoftMax 6). A vehicle only control and a dose titration of CRID3 (100-0.0017 μM) were run concurrently with each experiment.
Procedure 2: IL-1β Production in PMA-Differentiated THP-1 Cells Stimulated with Gramicidin.
THP-1 cells were purchased from the American Type Culture Collection and sub-cultured according to instructions from the supplier. Prior to experiments, cells were cultured in complete RPMI 1640 (containing 10% heat inactivated FBS, penicillin (100 units/ml) and streptomycin (100 μg/ml)), and maintained in log phase prior to experimental setup. Prior to the experiment THP-1 were treated with PMA (Phorbol 12-myristate 13-acetate) (20 ng/ml) for 16-18 hours. Compounds were dissolved in dimethyl sulfoxide (DMSO) to generate a 30mM stock. On the day of the experiment the media was removed and adherent cells were detached with trypsin for 5 minutes. […] The cells were plated in a 384-well plate at a density of 50,000 cells/well (final assay volume […]). Compounds were first dissolved in assay medium to obtain a 5× top concentration of 500 μM. 10 step dilutions (1:3) were then undertaken in assay medium containing 1.67% DMSO. 5× compound solutions were added to the culture medium to achieve desired final concentration (e.g. 100, 33, 11, 3.7, 1.2, 0.41, 0.14, 0.046, 0.015, 0.0051, 0.0017 μM). Final DMSO concentration was at 0.37%. Cells were incubated with compounds for 1 hour and then stimulated with gramicidin (5 μM) (Enzo) for 2 hours. Plates were then centrifuged at 340 g for 5 min. Cell free supernatant (40 μL) was collected using a 96—CHannel PlateMaster (Gilson) and the production of IL-1β was evaluated by HTRF (cisbio). A vehicle only control and a dose titration of CRID3 (100-0.0017 μM) were run concurrently with each experiment.
Tables B1, B2, B3, and B4 show the biological activity of compounds in hTHP-1 assay containing 2% fetal bovine serum. […] Key: <0.008 μM=“++++++”; ≥0.008 and <0.04 μM=“+++++”; >0.04 and <0.2 μM=“++++”; ≥0.2 and <1 μM=“+++”; ≥1 and <5 μM=“++”; ≥5 and <30 μM=“+”. […]

[1] abbreviates: read-out: hTHP-1 IC50 in 10% FBS, hTHP-1 assay containing 10% fetal bovine serum, Table B6.

SMILES strings stand for the structures. Read-outs that look alike come from different tables or passages of the source.

The term IC50 denotes the concentration at which inhibition is half-maximal. For `CCn1cc(F)c(S(N)(=O)=NC(=O)Nc2c3c(nc(C(F)(F)F)c2-c2ccc(F)c(F)c2)CCC3)n1` (single isomer, unassigned) [Compound 1113a, (S) or (R)-N′-((3-(3,4-difluorophenyl)-2-(trifluoromethyl)-6,7-dihydro-5H-cyclopenta[b]pyridin-4-yl)carbamoyl)-1-ethyl-4-fluoro-1H-pyrazole-3-sulfonimidamide], where the note is “read-out: hTHP-1 IC50 in 10% FBS, hTHP-1 assay containing 10% fetal bovine serum, Table B5, listed as 836”, the half-maximal inhibitory concentration (IC50) was 200 to 1000 nM.
For `C[C@@H]1CCc2c1nc1c(c2NC(=O)N=S(N)(=O)c2scc(C(C)(C)O)c2F)CCC1` (single isomer, unassigned) [Compound 1109b, (S) or (R)-3-fluoro-4-(2-hydroxypropan-2-yl)-N′-(((R)-3-methyl-1,2,3,5,6,7-hexahydrodicyclopenta [b,e]pyridin-8-yl)-carbamoyl) thiophene-2-sulfonimidamide], the IC50 (read-out: hTHP-1 IC50 in 10% FBS, hTHP-1 assay containing 10% fetal bovine serum, Table B5, listed as 843) lay in the range of 200 to 1000 nM.
For `C[C@@H]1CCc2c1nc1c(c2NC(=O)N=S(N)(=O)c2nn(C3CC3)cc2F)CCC1` (single isomer, unassigned) [Example 868, (S) or (R)-1-cyclopropyl-4-fluoro-N′-(((R)-3-methyl-1,2,3,5,6,7-hexahydrodicyclopenta[b,e]pyridin-8-yl)carbamoyl)-1H-pyrazole-3-sulfonimidamide], under setting [1], the half-inhibitory concentration (IC50) was in the range of 200 to 1000 nM.
Consider `CCn1cc(F)c(S(N)(=O)=NC(=O)Nc2c(C)c(C(F)(F)F)nc3c2CC(C)C3)n1` (single isomer, unassigned) [Compound 1101d, (R, R) or (R, S)-N′-((3,6-dimethyl-2-(trifluoromethyl)-6,7-dihydro-5H-cyclopenta[b]pyridin-4-yl)carbamoyl)-1-ethyl-4-fluoro-1H-pyrazole-3-sulfonimidamide], for which the IC50 (read-out: hTHP-1 IC50 in 10% FBS, hTHP-1 assay containing 10% fetal bovine serum, Table B5, listed as 824) fell in the range of 200 to 1000 nM.
Take `CC(C)(O)c1csc(S(N)(=O)=NC(=O)Nc2c3c(nc(C4CC4)c2C2CC2)CCC3)c1F` (single isomer, unassigned) [Compound 1106b, (S) or (R)-N′-((2,3-dicyclopropyl-6,7-dihydro-5H-cyclopenta[b]pyridin-4-yl)carbamoyl)-3-fluoro-4-(2-hydroxypropan-2-yl)thiophene-2-sulfonimidamide]: the half-maximal inhibitory concentration (IC50) (read-out: hTHP-1 IC50 in 10% FBS, hTHP-1 assay containing 10% fetal bovine serum, Table B5, listed as 831) fell in the range of 1000 to 5000 nM.
With `Cc1c(C(F)(F)F)nc2c(c1NC(=O)N=S(N)(=O)c1cnc(C(F)F)s1)CCC2` (single isomer, unassigned) [Compound 1007a, (R) or (S)-2-(Difluoromethyl)-N′-((3-methyl-2-(trifluoromethyl)-6,7-dihydro-5H-cyclopenta[b]pyridin-4-yl)carbamoyl)thiazole-5-sulfonimidamide], the 50% inhibitory concentration (IC50) (read-out: hTHP-1 IC50 in 10% FBS, hTHP-1 assay containing 10% fetal bovine serum, Table B5, listed as 829) lay within 1000 to 5000 nM.
Consider `NS(=O)(=NC(=O)Nc1c2c(nc3c1CCC31CC1)CCC2)c1nn(C2CC2)cc1F` (stereo not drawn) [Example 857, 1-Cyclopropyl-4-fluoro-N′-((1′,5′,6′,7′-tetrahydro-2′H-spiro[cyclopropane-1,3′-dicyclopenta[b,e]pyridin]-8′-yl)carbamoyl)-1H-pyrazole-3-sulfonimidamide], for which the 50% inhibitory concentration (IC50) (Homo sapiens, THP-1, read-out: hTHP-1 IC50 in 10% FBS, hTHP-1 assay containing 10% fetal bovine serum, Table B6) was 40 to 200 nM.
Regarding `Cc1c(C(F)(F)F)nc2c(c1NC(=O)N=S(N)(=O)c1nn(C3CC3)cc1F)CCC2` (single isomer, unassigned) [Example 870, (S) or (R)-1-cyclopropyl-4-fluoro-N′-((3-methyl-2-(trifluoromethyl)-6,7-dihydro-5H-cyclopenta[b]pyridin-4-yl)carbamoyl)-1H-pyrazole-3-sulfonimidamide], the IC50 under setting [1] fell in the range of 1000 to 5000 nM.
Take `CC(C)(O)c1csc(S(N)(=O)=NC(=O)Nc2c3c(nc4c2CCC4)CCC3)c1F` (single isomer, unassigned) [Compound 1107a, (R) or (S)-3-fluoro-N′-((1,2,3,5,6,7-hexahydrodicyclopenta[b,e]pyridin-8-yl)carbamoyl)-4-(2-hydroxypropan-2-yl)thiophene-2-sulfonimidamide]: the concentration for half-maximal inhibition (IC50) (read-out: hTHP-1 IC50 in 10% FBS, hTHP-1 assay containing 10% fetal bovine serum, Table B5, listed as 838) was in the range of 40 to 200 nM.
